# Reference: publication PMC7031696 (Cell chemical biology, 2019)
# “Also recorded” adds a separate entry of the source. Like-named read-outs stand apart in the source and are kept apart here.
# Legend:
# [1] = tested on: Plasmodium falciparum 3D7-A10 parasites; assay: Stage specificity assay (8-h exposure of synchronized stages, IC50^8h); format: cell-based; conditions: for IC50: Plasmodium falciparum
# [2] = tested on: asynchronous 3D7-A10 parasite cultures; assay: Standard 72-h exposure asexual blood stage susceptibility assay (IC50^72h); format: cell-based, Plasmodium falciparum; conditions: Plasmodium falciparum, 3D7, 72 h, read-out: Overall (72hr assay) Mean IC50 (IC50^72h)
# [3] = tested on: 3D7-MR4 trophozoite parasite-infected RBCs; assay: Metabolomic profiling (hydrophilic metabolite changes, UHPLC-MS); format: cell-based, Plasmodium falciparum
# [4] = 1.5 h, 500 μM, pH 7.4
# [5] = physchem; conditions: pH 7.4, aqueous buffer, kinetic from dmso stock
# [6] = 10 × IC50^72h, 2.5 hr, trophozoites
structure (smiles),measurement,setting,value
"Clc1ccc2c(N3CCN(CCCN4CCN(c5ccnc6cc(Cl)ccc56)CC4)CC3)ccnc2c1 [Piperaquine, reference compound]",Ratio lowest IC50 8hr/IC50 72hr,[1]; 3D7-A10,1.7
same,overall activity profile (stages on which active),[1]; 8-h exposures,activity on all stages
same,IC50,"[1]; 3D7, read-out: Early rings Mean IC50 (IC50^8h), 8-h exposure 0–8 hr, 3D7-A10, survival at 60 h",26.2 nM
same,IC50,"[1]; 3D7, read-out: Early trophozoites Mean IC50 (IC50^8h), 8-h exposure 16–24 hr, 3D7-A10, survival at 60 h",27.4 nM
same,IC50,"[1]; 3D7, read-out: Late rings Mean IC50 (IC50^8h), 8-h exposure 8–16 hr, 3D7-A10, survival at 60 h",46.3 nM
same,IC50,"[1]; 3D7, read-out: Late trophozoites Mean IC50 (IC50^8h), 8-h exposure 24–32 hr, 3D7-A10, survival at 60 h",32.9 nM
same,IC50,"[1]; 3D7, read-out: Schizonts Mean IC50 (IC50^8h), 8-h exposure 32–40 hr, 3D7-A10, survival at 60 h",67 nM
same,IC50^8h relative to IC50^72h value,[1]; most susceptible stages,≤ 2 fold
same,Stage of peak activity (Figure 6),[1]; period when the parasite was most susceptible (lowest IC50^8h),ring and trophozoite stages; also recorded: rings and trophozoites
same,IC50,[2],15.4 nM
same,changes within the set of metabolites detected (low fold change group),[3]; [6],did not induce major changes
same,"decreased levels of dCDP, dTMP, guanosine, and guanine",[3]; [6],≥ 2 fold
same,Log2(fold changes) 3-phosphoglycerate,"[3]; metabolite 3-phosphoglycerate, log2 fold change",0.1576
same,Log2(fold changes) 4-Pyridoxic acid,"[3]; metabolite 4-Pyridoxic acid, log2 fold change",0.0000
same,Log2(fold changes) 4-aminobutyrate,"[3]; metabolite 4-aminobutyrate, log2 fold change",-0.0347
same,Log2(fold changes) 4-phosphopantetheine,"[3]; metabolite 4-phosphopantetheine, log2 fold change",0.0000
same,Log2(fold changes) 4-phosphopantothenate,"[3]; metabolite 4-phosphopantothenate, log2 fold change",-0.1578
same,Log2(fold changes) 5-aminopentanoic acid,"[3]; metabolite 5-aminopentanoic acid, log2 fold change",0.0000
same,Log2(fold changes) 5-methyl-THF,"[3]; metabolite 5-methyl-THF, log2 fold change",0.0000
same,Log2(fold changes) 5-phosphoribosyl-1-pyrophosphate,"[3]; metabolite 5-phosphoribosyl-1-pyrophosphate, log2 fold change",0.2840
same,Log2(fold changes) 6-phospho-D-gluconate,"[3]; metabolite 6-phospho-D-gluconate, log2 fold change",0.0537
same,Log2(fold change) HVDD,[3]; metabolite HVDD,0.0000
same,Log2(fold change) Hydroxyisocaproic acid,[3]; metabolite Hydroxyisocaproic acid,0.0000
same,Log2(fold change) IDP,[3]; metabolite IDP,-0.0045
same,Log2(fold change) IMP,[3]; metabolite IMP,-0.1159
same,Log2(fold change) Inositol,[3]; metabolite Inositol,0.0000
same,Log2(fold change) Isopentyl-PP,[3]; metabolite Isopentyl-PP,0.0000
same,Log2(fold change) L-arginino-succinate,[3]; metabolite L-arginino-succinate,0.0000
same,Log2(fold change) LD,[3]; metabolite LD,0.0483
same,Log2(fold change) Myristoyl/tetradecanoyl-CoA,[3]; metabolite Myristoyl/tetradecanoyl-CoA,0.0000
same,Log2(fold change) N-Acetyl-L-alanine,[3]; metabolite N-Acetyl-L-alanine,-0.2552
same,Log2(fold change) N-acetyl-L-ornithine,[3]; metabolite N-acetyl-L-ornithine,-0.0188
same,Log2(fold change) N-acetyl-glucosamine-1/6-phosphate,[3]; metabolite N-acetyl-glucosamine-1/6-phosphate,-0.1206
same,Log2(fold change) N-acetyl-glutamate,[3]; metabolite N-acetyl-glutamate,-0.0276
same,Log2(fold change) N-acetyl-glutamine,[3]; metabolite N-acetyl-glutamine,0.0000
same,Log2(fold change) N-carbamoyl-L-aspartate,[3]; metabolite N-carbamoyl-L-aspartate,-0.1894
same,Log2(fold change) NAD+,[3]; metabolite NAD+,-0.0736
same,Log2(fold change) NADH,[3]; metabolite NADH,0.1619
same,Log2(fold change) NADP+,[3]; metabolite NADP+,0.0160
same,Log2(fold change) NADPH,[3]; metabolite NADPH,0.1653
same,Log2(fold change) O-acetyl-L-serine,[3]; metabolite O-acetyl-L-serine,0.0000
same,Log2(fold change) Octoluse 8/1P,[3]; metabolite Octoluse 8/1P,-0.0774
same,Log2(fold change) Octoluse Bisphosphate,[3]; metabolite Octoluse Bisphosphate,0.0393
same,Log2(fold change) PD,[3]; metabolite PD,-0.0500
same,Log2(fold change) PE,[3]; metabolite PE,0.0291
same,Log2(fold change) PEE,[3]; metabolite PEE,0.1599
same,Log2(fold change) PEEK,[3]; metabolite PEEK,0.3927
same,Log2(fold change) PVNF,[3]; metabolite PVNF,0.0618
same,Log2(fold change) Pyroglutamic acid,[3]; metabolite Pyroglutamic acid,-0.2255
same,Log2(fold change) Pyrophosphate,[3]; metabolite Pyrophosphate,0.0000
same,Log2(fold change) Ribose-5-phosphate,[3]; metabolite Ribose-5-phosphate,-0.0505
same,Log2(fold change) S-adenosyl-L-homocysteine,[3]; metabolite S-adenosyl-L-homocysteine,-0.1747
same,Log2(fold change) S-adenosyl-L-methioninamine,[3]; metabolite S-adenosyl-L-methioninamine,0.0000
same,Log2(fold change) S-adenosyl-L-methionine,[3]; metabolite S-adenosyl-L-methionine,0.0000
same,Log2(fold change) S-methyl-5'-thioadenosine,[3]; metabolite S-methyl-5'-thioadenosine,-5.54e-5
same,Log2(fold change) SD,[3]; metabolite SD,0.0815
same,Log2(fold change) SDL,[3]; metabolite SDL,0.0000
same,Log2(fold change) SID,[3]; metabolite SID,0.0000
same,Log2(fold change) Sedoheptulose bisphosphate,[3]; metabolite Sedoheptulose bisphosphate,0.2230
same,Log2(fold change) Thiamine pyrophosphate,[3]; metabolite Thiamine pyrophosphate,-0.1023
same,Log2(fold changes) UDP-D-glucose,"[3]; metabolite UDP-D-glucose, log2 fold change",-0.0097
same,Log2(fold changes) UDP-D-glucuronate,"[3]; metabolite UDP-D-glucuronate, log2 fold change",0.0081
same,Log2(fold changes) UDP-N-acetyl-glucosamine,"[3]; metabolite UDP-N-acetyl-glucosamine, log2 fold change",-0.0956
same,Log2(fold changes) UDP,"[3]; metabolite UDP, log2 fold change",-0.8655
same,Log2(fold changes) UMP,"[3]; metabolite UMP, log2 fold change",-0.2304
same,Log2(fold changes) UTP,"[3]; metabolite UTP, log2 fold change",0.0058
same,Log2(fold change) hydroxyphenylpyruvate,[3]; metabolite hydroxyphenylpyruvate,0.0000
same,Log2(fold change) hydroxyproline/Aminolevulinate,[3]; metabolite hydroxyproline/Aminolevulinate,0.0000
same,Log2(fold change) hypoxanthine,[3]; metabolite hypoxanthine,0.0000
same,Log2(fold change) indole,[3]; metabolite indole,0.0000
same,Log2(fold change) inosine,[3]; metabolite inosine,-0.3997
same,Log2(fold change) isoleucine,[3]; metabolite isoleucine,0.1103
same,Log2(fold change) lactate,[3]; metabolite lactate,-0.4255
same,Log2(fold change) leucine,[3]; metabolite leucine,-0.0845
same,Log2(fold change) lysine,[3]; metabolite lysine,0.0614
same,Log2(fold change) malate,[3]; metabolite malate,-0.0964
same,Log2(fold change) maleic acid,[3]; metabolite maleic acid,-0.0992
same,Log2(fold change) methionine,[3]; metabolite methionine,0.1002
same,Log2(fold change) myo-inositol,[3]; metabolite myo-inositol,-0.6606
same,Log2(fold change) nicotinamide mononucleotide,[3]; metabolite nicotinamide mononucleotide,-0.1524
same,Log2(fold change) nicotinate,[3]; metabolite nicotinate,-0.4222
same,Log2(fold change) ornithine,[3]; metabolite ornithine,0.0000
same,Log2(fold change) orotate,[3]; metabolite orotate,-0.5698
same,Log2(fold change) orotidine-5'-phosphate,[3]; metabolite orotidine-5'-phosphate,-0.6109
same,Log2(fold change) oxaloacetate,[3]; metabolite oxaloacetate,0.0000
same,Log2(fold change) p-aminobenzoate,[3]; metabolite p-aminobenzoate,0.0000
same,Log2(fold change) p-hydroxybenzoate,[3]; metabolite p-hydroxybenzoate,0.0000
same,Log2(fold change) pantothenate,[3]; metabolite pantothenate,-0.1253
same,Log2(fold change) phenylalanine,[3]; metabolite phenylalanine,-0.1188
same,Log2(fold change) phenylpyruvate,[3]; metabolite phenylpyruvate,0.0000
same,Log2(fold change) phosphoenolpyruvate,[3]; metabolite phosphoenolpyruvate,0.1409
same,Log2(fold change) prephenate,[3]; metabolite prephenate,0.0000
same,Log2(fold change) proline,[3]; metabolite proline,-0.1490
same,Log2(fold change) pyridoxine,[3]; metabolite pyridoxine,-0.1465
same,Log2(fold change) pyruvate,[3]; metabolite pyruvate,-0.2297
same,Log2(fold change) riboflavin,[3]; metabolite riboflavin,0.0675
same,Log2(fold change) ribose,[3]; metabolite ribose,0.0000
same,Log2(fold change) ribose-phosphate,[3]; metabolite ribose-phosphate,-0.1362
same,Log2(fold change) ribulose-5-phosphate,[3]; metabolite ribulose-5-phosphate,-0.0392
same,Log2(fold change) serine,[3]; metabolite serine,0.0266
same,Log2(fold change) sn-glycerol-3-phosphate,[3]; metabolite sn-glycerol-3-phosphate,0.0600
same,Log2(fold change) succinate/Methylmalonic acid,[3]; metabolite succinate/Methylmalonic acid,0.0813
same,Log2(fold change) succinyl-CoA/methylmalonyl-CoA,[3]; metabolite succinyl-CoA/methylmalonyl-CoA,0.0000
same,Log2(fold change) taurine,[3]; metabolite taurine,0.4424
same,Log2(fold change) thiamine,[3]; metabolite thiamine,-0.0999
same,Log2(fold change) threonine/homoserine,[3]; metabolite threonine/homoserine,-0.0376
same,Log2(fold change) thymidine,[3]; metabolite thymidine,0.0000
same,Log2(fold changes) thymine,"[3]; metabolite thymine, log2 fold change",0.0000
same,Log2(fold changes) trehalose-6-Phosphate,"[3]; metabolite trehalose-6-Phosphate, log2 fold change",0.0000
same,Log2(fold changes) tryptophan,"[3]; metabolite tryptophan, log2 fold change",-0.0757
same,Log2(fold changes) tyrosine,"[3]; metabolite tyrosine, log2 fold change",0.0866
same,Log2(fold changes) uridine,"[3]; metabolite uridine, log2 fold change",-0.4854
same,Ratio fil./std. (absorbance filtrate/standard),[4],0.69
same,solubility at 1.5 h,[5],100 to 500 µM
